US20080064675A1, “Use of Aromatic flavoring agents with high melting point as solubilizing agents” (priority 2005, published 2008)

Assay: trans-anethole and vanillin in compositions of modafinil (Example 3)
Format: physicochemical
Method: 200 mg of modafinil were weighted in two test tubes (A and B). 2 mL of benzyl alcohol were added to test tube A and 200 mg of vanillin, 2 mL of anethole and 2 mL of benzyl alcohol were added to test tube B. The test tubes were stirred and heated to 60° C. Further, the tubes were cooled at room temperature.

Question: For `NC(=O)C[S+]([O-])C(c1ccccc1)c1ccccc1` (centres unmarked) [modafinil], which “crystallization on cooling at room temperature” value (tube A: 200 mg in 2 mL benzyl alcohol) is on record?
Answer: promptly crystallized

Question: And the “crystallization after cooling at room temperature” value (tube B: 200 mg vanillin, 2 mL anethole and 2 mL benzyl alcohol, 12 hours after cooling)?
Answer: no crystals were noted
